Values after ≈ are worked out from the molar mass of the structure shown.
Key:
K562/ADR = assay: Leukemia cell growth inhibition, MTT, 72 h; type: cell-based; settings: Homo sapiens
Description: (§1) Leukemia cell lines: leukemia cell lines: K562/adr (drug-resistant, chronic myeloid leukemia, CML), NB4 (acute promyelocytic leukemia, AML), Kasumi-1 (acute myeloid leukemia M2 type, AML-M2), Jurkat (acute lymphoblastic leukemia, ALL), all of which were donated by Cancer Research Institute of Zhejiang University, China; and H9 (acute lymphoblastic leukemia, ALL), which was purchased from China Center for Type Culture Collection.
(§2) 6000 well-growing leukemia cells were obtained and inoculated into wells of a 96-well cell culture plate. […] On the next day, the 1-oxo/acylated-14-acylated oridonin derivatives of different concentrations were added and mixed uniformly. The plate was placed in a carbon dioxide cell incubator (5% CO2) at 37° C. and was incubated for 72 hours. Then the viable cell concentration was determined by MTT method.

Kasumi-1 = assay: Leukemia cell growth inhibition, MTT, 72 h; type: cell-based; settings: Homo sapiens
Description: as §1, §2

H9 = assay: Leukemia cell growth inhibition, MTT, 72 h; type: cell-based, human; settings: Homo sapiens, H9; 72 h, MTT
Description: as §1, §2

Jurkat = assay: Leukemia cell growth inhibition, MTT, 72 h; type: cell-based, human; settings: Homo sapiens, Jurkat; 72 h, MTT
Description: as §1, §2

NB4 = assay: Leukemia cell growth inhibition, MTT, 72 h; type: cell-based, human; settings: Homo sapiens, NB-4; 72 h, MTT
Description: as §1, §2

RPMI 8226 = assay: Multiple myeloma cell growth inhibition, MTT, 72 h; type: cell-based; settings: Homo sapiens
Experimental: Multiple myeloma cell lines: RPMI8226 (multiple myeloma), purchased from Fuxiang Bio-tech Co. Ltd., Shanghai, China.
as §2, with “well-growing” for “well-growing leukemia”, “and” for “and was”

CNE = assay: Solid tumor cell growth inhibition, MTT, 72 h; type: cell-based, human; settings: Homo sapiens, CNE; 72 h, MTT
Experimental: (§3) 6000 well-growing human solid tumor cells were obtained and inoculated into wells of a 96-well cell culture plate. The culture medium was DMEM High Glucose cell culture medium containing 10% fetal bovine serum. The plate was placed in a carbon dioxide cell incubator (5% CO2) at 37° C. and incubated for 24 hours. After added with 1-oxo/acylated-14-acylated oridonin derivatives of different concentration and mixed uniformly, the plate was placed in a carbon dioxide cell incubator (5% CO2) at 37° C. and incubated for 72 hours. Then the viable cell concentration was determined by MTT method.

Hela = assay: Solid tumor cell growth inhibition, MTT, 72 h; type: cell-based, human; settings: Homo sapiens, HeLa; 72 h, MTT
Experimental: as §3

Hep-2 = assay: Solid tumor cell growth inhibition, MTT, 72 h; type: cell-based, human; settings: Homo sapiens, HEp-2; 72 h, MTT
Experimental: as §3

MGC-803 = assay: Solid tumor cell growth inhibition, MTT, 72 h; type: cell-based, human; settings: Homo sapiens, MGC-803; 72 h, MTT
Experimental: as §3

A549 = assay: Solid tumor cell growth inhibition, MTT, 72 h; type: cell-based; settings: Homo sapiens
Experimental: as §3

Becap-37 = assay: Solid tumor cell growth inhibition, MTT, 72 h; type: cell-based; settings: Homo sapiens
Experimental: as §3

CaEs-17 = assay: Solid tumor cell growth inhibition, MTT, 72 h; type: cell-based; settings: Homo sapiens, CaEs17
Experimental: as §3

Hep G2 = assay: Solid tumor cell growth inhibition, MTT, 72 h; type: cell-based; settings: Homo sapiens, HepG2
Experimental: as §3

MG-63 = assay: Solid tumor cell growth inhibition, MTT, 72 h; type: cell-based; settings: Homo sapiens
Experimental: as §3

PANC-1 = assay: Solid tumor cell growth inhibition, MTT, 72 h; type: cell-based; settings: Homo sapiens
Experimental: as §3

PC-3 = assay: Solid tumor cell growth inhibition, MTT, 72 h; type: cell-based; settings: Homo sapiens
Experimental: as §3

RKO = assay: Solid tumor cell growth inhibition, MTT, 72 h; type: cell-based; settings: Homo sapiens
Experimental: as §3

SK-OV-3 = assay: Solid tumor cell growth inhibition, MTT, 72 h; type: cell-based; settings: Homo sapiens, SK-OV-3, 72 h, MTT
Experimental: as §3

U87-MG = assay: Solid tumor cell growth inhibition, MTT, 72 h; type: cell-based; settings: Homo sapiens, U-87 MG
Experimental: as §3

C=C1C(=O)[C@]23[C@H](OC(=O)c4cccs4)[C@H]1CC[C@H]2[C@@]12CO[C@@]3(O)[C@@H](O)[C@@H]1C(C)(C)CCC2=O [BS-OR-007]
IC50 (K562/ADR): 0.47 µg/mL (≈ 0.995 µM)
IC90 (K562/ADR): 1.86 µg/mL (≈ 3.94 µM)
IC50 (Kasumi-1): 0.71 µg/mL (≈ 1.5 µM)
IC90 (Kasumi-1): 1.76 µg/mL (≈ 3.72 µM)
IC50 (H9): 0.41 µg/mL (≈ 0.868 µM)
IC90 (H9): 0.92 µg/mL (≈ 1.95 µM)
IC50 (Jurkat): 0.71 µg/mL (≈ 1.5 µM)
IC90 (Jurkat): 4.45 µg/mL (≈ 9.42 µM)
IC50 (NB4): 0.08 µg/mL (≈ 0.169 µM)
IC90 (NB4): 0.47 µg/mL (≈ 0.995 µM)
IC50 (RPMI 8226): 0.37 µg/mL (≈ 0.783 µM)
IC90 (RPMI 8226): 2.59 µg/mL (≈ 5.48 µM)
IC50 (CNE): 1.33 µg/mL (≈ 2.81 µM)
IC90 (CNE): 5.16 µg/mL (≈ 10.9 µM)
IC50 (Hela): 1.64 µg/mL (≈ 3.47 µM)
IC90 (Hela): 4.92 µg/mL (≈ 10.4 µM)
IC50 (Hep-2): 1.76 µg/mL (≈ 3.72 µM)
IC90 (Hep-2): 9.2 µg/mL (≈ 19.5 µM)
IC50 (MGC-803): 0.95 µg/mL (≈ 2.01 µM)
IC90 (MGC-803): 9.79 µg/mL (≈ 20.7 µM)
IC50 (A549): 2.13 µg/mL (≈ 4.51 µM)
IC90 (A549): 5.34 µg/mL (≈ 11.3 µM)
IC50 (Becap-37): 1.02 µg/mL (≈ 2.16 µM)
IC90 (Becap-37): 3.8 µg/mL (≈ 8.04 µM)
IC50 (CaEs-17): 0.93 µg/mL (≈ 1.97 µM)
IC90 (CaEs-17): 5.32 µg/mL (≈ 11.3 µM)
IC50 (Hep G2): 1.54 µg/mL (≈ 3.26 µM)
IC90 (Hep G2): 10.8 µg/mL (≈ 22.9 µM)
IC50 (MG-63): 0.42 µg/mL (≈ 0.889 µM)
IC90 (MG-63): 0.96 µg/mL (≈ 2.03 µM)
IC50 (PANC-1): 1.63 µg/mL (≈ 3.45 µM)
IC90 (PANC-1): 8.55 µg/mL (≈ 18.1 µM)
IC50 (PC-3): 1.69 µg/mL (≈ 3.58 µM)
IC90 (PC-3): 4.6 µg/mL (≈ 9.73 µM)
IC50 (RKO): 0.43 µg/mL (≈ 0.91 µM)
IC90 (RKO): 0.95 µg/mL (≈ 2.01 µM)
IC50 (SK-OV-3; read-out: IC50 SK-OV-3): 1.69 µg/mL (≈ 3.58 µM)
IC90 (SK-OV-3; read-out: IC90 SK-OV-3): 4.6 µg/mL (≈ 9.73 µM)
IC50 (U87-MG): 0.78 µg/mL (≈ 1.65 µM)
IC90 (U87-MG): 3.21 µg/mL (≈ 6.79 µM)
